Experimental data: US7601716B2, “Pyridopyrazines and derivatives thereof as ALK and c-Met inhibitors” (Cephalon, Inc., priority 2006, dated 2009)

Legend:
[1] = biological target: T1, c-Met (cytoplasmic domain) (Homo sapiens, UniProt P08581); assay: c-Met Kinase Assay (ELISA/TRF, PLC-γ substrate); assay type: biochemical; conditions: 3 μM ATP (Km level); read-out: c-Met Kinase Inhibition (IC50)
T1 construct: Reactions were initiated with 30 ng/mL c-Met (cytoplasmic domain, Invitrogen Corporation #PV3143); purchased Invitrogen Corporation PV3143
Outline: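 c-Met cytoplasmic domain (30 ng/mL) phosphorylates plate-coated GST–PLC-γ for 15 min at 37 °C. Phosphotyrosine detected with Eu-labeled PT66 antibody by time-resolved fluorescence. IC50 from variable-slope sigmoidal fit of % inhibition vs log concentration.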

[2] = biological target: baculovirus-expressed ALK (Homo sapiens, UniProt Q9UM73); assay: ALK Kinase Assay (ELISA/TRF, PLC-γ substrate); assay type: biochemical; conditions: read-out: ALK Kinase Inhibition (IC50); further: 1 µM ATP (Km level)
Outline: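 An ELISA adapted from a trkA format was used: wells carried GST-fused PLC-γ substrate, and enzyme addition (30 ng/ml ALK) started a 15-minute reaction at 37° C.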

T1 sequence (P08581 956-1390 limits assumed): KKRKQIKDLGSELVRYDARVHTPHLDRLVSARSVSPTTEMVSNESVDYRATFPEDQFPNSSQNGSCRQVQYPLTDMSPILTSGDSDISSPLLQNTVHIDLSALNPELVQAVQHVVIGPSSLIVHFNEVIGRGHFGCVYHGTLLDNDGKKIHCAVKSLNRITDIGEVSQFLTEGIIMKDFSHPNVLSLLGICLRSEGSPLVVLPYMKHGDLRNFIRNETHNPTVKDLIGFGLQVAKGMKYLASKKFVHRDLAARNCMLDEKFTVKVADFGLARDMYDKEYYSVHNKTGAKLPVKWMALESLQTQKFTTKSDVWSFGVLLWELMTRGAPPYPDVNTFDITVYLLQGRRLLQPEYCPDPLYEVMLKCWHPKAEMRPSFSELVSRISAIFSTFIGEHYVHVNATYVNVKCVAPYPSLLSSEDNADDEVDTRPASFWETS
Sequence of baculovirus-expressed ALK (Q9UM73 19-1620): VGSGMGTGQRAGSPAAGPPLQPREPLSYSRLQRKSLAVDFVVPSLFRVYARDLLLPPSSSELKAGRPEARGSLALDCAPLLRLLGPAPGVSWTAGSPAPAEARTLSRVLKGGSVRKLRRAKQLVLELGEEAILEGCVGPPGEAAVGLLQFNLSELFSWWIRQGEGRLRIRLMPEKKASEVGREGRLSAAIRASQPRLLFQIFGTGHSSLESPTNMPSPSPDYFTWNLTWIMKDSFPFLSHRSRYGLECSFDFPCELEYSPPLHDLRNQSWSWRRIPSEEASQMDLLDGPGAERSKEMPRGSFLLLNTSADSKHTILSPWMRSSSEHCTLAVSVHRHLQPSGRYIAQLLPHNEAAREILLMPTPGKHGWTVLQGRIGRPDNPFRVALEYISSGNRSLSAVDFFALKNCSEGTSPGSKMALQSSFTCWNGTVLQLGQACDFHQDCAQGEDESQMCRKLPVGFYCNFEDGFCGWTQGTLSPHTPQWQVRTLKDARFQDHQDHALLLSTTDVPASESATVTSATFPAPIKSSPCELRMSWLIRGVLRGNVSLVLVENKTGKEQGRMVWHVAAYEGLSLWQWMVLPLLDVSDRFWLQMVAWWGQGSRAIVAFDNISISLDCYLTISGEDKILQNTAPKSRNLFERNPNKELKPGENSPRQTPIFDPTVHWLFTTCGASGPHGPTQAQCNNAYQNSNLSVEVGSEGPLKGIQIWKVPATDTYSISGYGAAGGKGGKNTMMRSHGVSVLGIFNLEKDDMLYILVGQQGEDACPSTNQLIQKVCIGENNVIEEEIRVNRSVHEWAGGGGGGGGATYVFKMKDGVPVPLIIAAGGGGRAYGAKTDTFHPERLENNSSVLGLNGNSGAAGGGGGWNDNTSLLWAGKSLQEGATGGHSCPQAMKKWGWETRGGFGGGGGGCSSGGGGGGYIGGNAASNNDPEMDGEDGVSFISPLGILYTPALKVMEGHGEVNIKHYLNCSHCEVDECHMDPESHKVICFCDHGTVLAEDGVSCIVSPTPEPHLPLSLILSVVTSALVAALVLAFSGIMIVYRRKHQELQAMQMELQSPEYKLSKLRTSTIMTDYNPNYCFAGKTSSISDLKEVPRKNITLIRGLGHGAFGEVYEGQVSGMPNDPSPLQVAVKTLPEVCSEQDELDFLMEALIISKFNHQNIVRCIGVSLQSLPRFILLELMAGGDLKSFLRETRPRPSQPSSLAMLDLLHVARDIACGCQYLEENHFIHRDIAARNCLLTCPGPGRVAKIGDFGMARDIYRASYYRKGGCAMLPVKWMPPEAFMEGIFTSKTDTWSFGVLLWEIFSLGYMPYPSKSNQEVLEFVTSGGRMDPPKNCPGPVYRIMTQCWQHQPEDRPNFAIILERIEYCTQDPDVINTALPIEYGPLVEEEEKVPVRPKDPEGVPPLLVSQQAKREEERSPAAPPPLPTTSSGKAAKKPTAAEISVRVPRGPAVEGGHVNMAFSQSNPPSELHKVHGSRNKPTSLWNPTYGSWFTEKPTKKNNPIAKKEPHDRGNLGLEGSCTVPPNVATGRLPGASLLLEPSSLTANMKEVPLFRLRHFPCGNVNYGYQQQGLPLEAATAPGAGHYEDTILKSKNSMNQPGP

| SMILES | IC50 [1] | IC50 [2] | melting point |
| --- | --- | --- | --- |
| CCOC(=O)c1ccc(-c2cnc3c(c2)N(Cc2cc(F)ccc2F)C(=O)CN3)cc1 [Example 55, 4-[1-(2,5-Difluorobenzyl)-2-oxo-1,2,3,4-tetrahydropyrido[2,3-b]pyrazin-7-yl]benzoic acid ethyl ester] | > 100 µM | 10 to 100 µM | 201 to 203 °C |
| CC1(C)CN(Cc2cc(F)ccc2F)c2cc(I)cnc2N1 [Example 93, 1-(2,5-Difluorobenzyl)-7-iodo-3,3-dimethyl-1,2,3,4-tetrahydropyrido[2,3-b]pyrazine] | > 100 µM | > 100 µM | 168 to 169 °C |
| Clc1ccc(Cl)c(CN2CCNc3ncc(C4=CCNCC4)cc32)c1 [Example 131, 1-(2,5-Dichlorobenzyl)-7-(1,2,3,6-tetrahydropyridin-4-yl)-1,2,3,4-tetrahydropyrido[2,3-b]pyrazine] | 1 to 10 µM | 1 to 10 µM | 133 to 136 °C |
| CCOC(=O)c1ccc(-c2cnc3c(c2)N(Cc2cc(Cl)ccc2C(F)(F)F)CCN3)cc1 [Example 193, 4-{1-[5-Chloro-2-(trifluoromethyl)benzyl]-1,2,3,4-tetrahydropyrido[2,3-b]pyrazin-7-yl}benzoic acid ethyl ester] | > 100 µM | > 100 µM | 154 °C |
| Clc1ccc(Cl)c(CN2CCNc3ncc(-c4ccc(Cl)nc4)cc32)c1 [Example 165, 7-(6-Chloropyridin-3-yl)-1-(2,5-dichlorobenzyl)-1,2,3,4-tetrahydropyrido[2,3-b]pyrazine] | > 100 µM | 0.1 to 1 µM | 205 °C |
| O=S(=O)(c1ccccc1Cl)N1CCNc2ncc(I)cc21 [Example 124, 1-(2-Chlorobenzenesulfonyl)-7-iodo-1,2,3,4-tetrahydropyrido[2,3-b]pyrazine] | 10 to 100 µM | 1 to 10 µM | 146 to 147 °C |
| O=C(c1ccc(-c2cnc3c(c2)N(Cc2cc(Cl)ccc2C(F)(F)F)CCN3)cc1)N1CCCCC1 [Example 204] | 10 to 100 µM | 0.1 to 1 µM | 216 °C |
| CCOC(=O)c1cccc(-c2cnc3c(c2)N(Cc2cc(Cl)ccc2C(F)(F)F)CCN3)c1 [Example 194, 3-{1-[5-Chloro-2-(trifluoromethyl)benzyl]-1,2,3,4-tetrahydropyrido[2,3-b]pyrazin-7-yl}benzoic acid ethyl ester] | > 100 µM | 0.1 to 1 µM | 174 °C |
| O=C(O)c1cnc2c(c1)N(Cc1cc(F)ccc1F)CCN2 [Example 78, 1-(2,5-Difluorobenzyl)-1,2,3,4-tetrahydropyrido[2,3-b]pyrazine-7-carboxylic acid] | > 100 µM | > 100 µM | 231 °C (dec.) |
| CN1CCN(C(=O)c2ccc(-c3cnc4c(c3)N(Cc3cc(F)ccc3F)CC(C)(C)N4)cc2)CC1 [Example 97, {4-[1-(2,5-Difluorobenzyl)-3,3-dimethyl-1,2,3,4-tetrahydropyrido[2,3-b]pyrazin-7-yl]phenyl}-(4-methylpiperazin-1-yl)methanone] | > 100 µM | 10 to 100 µM | 191 to 192 °C |
| Ic1cnc2c(c1)N(Cc1ccccc1)CCN2 [Example 33, 1-Benzyl-7-iodo-1,2,3,4-tetrahydropyrido[2,3-b]pyrazine] | > 100 µM | 10 to 100 µM | 147 to 148 °C |
| CN(C)CCNC(=O)c1ccc(-c2cnc3c(c2)N(C(=O)c2ccccc2)CCN3)cc1 [Example 52, 4-(1-Benzoyl-1,2,3,4-tetrahydropyrido[2,3-b]pyrazin-7-yl)-N-(2-dimethylamino-ethyl)benzamide] | 10 to 100 µM | 10 to 100 µM | 145 to 147 °C |
| O=C1CNc2ncc(-c3ccc(C(=O)N4CCC[C@H]4CN4CCCC4)cc3)cc2N1Cc1cc(F)c(F)cc1F [Example 83, 7-[4-((S)-2-[(pyrrolidin-1-yl)methyl]pyrrolidine-1-carbonyl)phenyl]-1-(2,4,5-trifluorobenzyl)-3,4-dihydro-1H-pyrido[2,3-b]pyrazin-2-one] | 10 to 100 µM | 1 to 10 µM | 117 to 118 °C |
| FC(F)(F)c1ccc(Cl)cc1CN1CCNc2ncc(I)cc21 [Example 115, 1-(5-Chloro-2-trifluoromethylbenzyl)-7-iodo-1,2,3,4-tetrahydropyrido[2,3-b]pyrazine] | > 100 µM | 1 to 10 µM | 189 to 191 °C |
| O=C1CNc2ncc(-c3cccnc3)cc2N1Cc1c(Cl)cccc1Cl [Example 137, 1-(2,6-Dichlorobenzyl)-7-pyridin-3-yl-3,4-dihydro-1H-pyrido[2,3-b]pyrazin-2-one] | > 100 µM | 10 to 100 µM | > 200 °C |
| O=C(O)c1ccc(-c2cnc3c(c2)N(Cc2ccccc2)CCN3)cc1 [Example 36, 4-(1-Benzyl-1,2,3,4-tetrahydropyrido[2,3-b]pyrazin-7-yl)benzoic acid] | 1 to 10 µM | 0.1 to 1 µM | > 300 °C |
| CC(C)CCn1cc(-c2cnc3c(c2)N(Cc2c(F)ccc(F)c2Cl)CCN3)cn1 [Example 191, 1-(2-Chloro-3,6-difluorobenzyl)-7-[1-(3-methylbutyl)-1H-pyrazol-4-yl]-1,2,3,4-tetrahydropyrido[2,3-b]pyrazine] | 0.1 to 1 µM | 0.1 to 1 µM | 134 °C |
| Fc1cc(F)c(CN2CCNc3ncc(I)cc32)cc1F [Example 82, 7-Iodo-1-(2,4,5-trifluorobenzyl)-1,2,3,4-tetrahydropyrido[2,3-b]pyrazine] | 10 to 100 µM | > 100 µM | 154 to 156 °C |
| CN1CCN(C(=O)c2ccc(-c3cnc4c(c3)N(C(=O)c3cc(F)ccc3F)CCN4)cc2)CC1 [Example 88, (2,5-Difluorophenyl)-{7-[4-(4-methylpiperazine-1-carbonyl)phenyl]-3,4-dihydro-2H-pyrido[2,3-b]pyrazin-1-yl}-methanone] | 1 to 10 µM | 10 to 100 µM | 201 to 203 °C |
| Clc1cccc(OC2CCNc3ncc(-c4ccc(N5CCOCC5)cc4)cc32)c1 (stereo not drawn) [Example 280, 4-(3-Chlorophenoxy)-6-(4-morpholin-4-yl-phenyl)-1,2,3,4-tetrahydro-[1,8]naphthyridine] | 10 to 100 µM | 1 to 10 µM | 124 to 126 °C |
| Fc1ccc(F)c(CN2CCNc3ncc(-c4ccc(N5CCOCC5)nc4)cc32)c1 [Example 70, 1-(2,5-Difluorobenzyl)-7-(6-morpholin-4-yl-pyridin-3-yl)-1,2,3,4-tetrahydropyrido[2,3-b]pyrazine] | 10 to 100 µM | 0.1 to 1 µM | 206 to 207 °C |
| O=S(=O)(c1cc(F)ccc1F)N1CCNc2ncc(I)cc21 [Example 121, 1-(2,5-Difluorobenzenesulfonyl)-7-iodo-1,2,3,4-tetrahydropyrido[2,3-b]pyrazine] | 10 to 100 µM | 1 to 10 µM | 187 to 188 °C |
| OC1CCNc2ncc(Br)cc21 (stereo not drawn) [Example 268, 6-bromo-1,2,3,4-tetrahydro-[1,8]naphthyridin-4-ol] | > 100 µM | > 100 µM | 125 to 128 °C |
| NC(=O)c1ccc(-c2cnc3c(c2)N(Cc2ccccc2)C(=O)CN3)cc1 [Example 23, 4-(1-Benzyl-2-oxo-1,2,3,4-tetrahydropyrido[2,3-b]pyrazin-7-yl)benzamide] | 10 to 100 µM | 1 to 10 µM | > 200 °C |
